Laboratory results as given in patent US20100074934A1, “MEDICAL IMPLANTS WITH A COMBINATION OF COMPOUNDS” (priority 2006, published 2010).

System: chick chorioallantoic membrane (CAM)
Assay: chick chorioallantoic membrane (CAM) assay, inhibition of angiogenesis
Assay type: in vivo
Parameters: key: 0: normal vascularity; 1: lacking some microvascular movement; small avascular zone approximately 2 mm in diameter; 3: avascularity extending beyond the disk (6 mm in diameter)
Conditions: 2 day exposure
Procedure: Paclitaxel, dipyridamole, and a combination of paclitaxel and dipyridimole were tested in a chick chorioallantoic membrane (CAM) assay (A. Cevik Tufan and N. Lalae Satirglu-Tufanm Current Cancer Drug Targets, 2005, 5: 249-266) to measure inhibition of angiogenesis by the compounds.
Fertilized, domestic chick embryos were incubated for 4 days prior to shell-less culturing. In this procedure, the egg contents were emptied by cracking the shell, and allowing the contents of the egg to gently slide out. The egg contents were emptied into sterilized petri dishes and then covered with petri dish covers. These were then placed into an incubator at 37 degrees and 90% relative humidity for 4 days.
Paclitaxel (Hauser Lot 1492-16199A) was fixed at concentrations of 0.3 μg and 1 μg per 10 ul aliquot of 0.5% aqueous methylcellulose (disc). Dipyridamole (Aldrich 285676, Lot 064K157) was added to each fixed dose of paclitaxel at specific molar ratios of 1:3, 1:10, 1:1, 3:1, 10:1. Neat solvent (DMSO), paclitaxel at 0.3 μg and 1 μg per disc and the dipyridamole at 5.92 μg per disc were used as the individual controls. Ten microliter aliquots of this solution were dried on parafilm for 3 hours forming disks 2 mm in diameter. The dried disks containing the combination ratios and controls were then carefully placed at the growing edge of each CAM at day 7 of incubation. After a 2 day exposure ([…]) the vasculature was examined with the aid of a stereomicroscope. Liposyn II, a white opaque solution, was injected into the CAM to increase the visibility of the vascular details.
This imaging setup was used at a magnification of 160× which permitted the direct visualization of blood cells within the capillaries; thereby blood flow in areas of interest may be easily assessed and recorded. For this study, the inhibition of angiogenesis was defined as an area of the CAM (measuring 2-6 mm in diameter) lacking a capillary network and vascular blood flow. Throughout the experiments, avascular zones were assessed on a 4 point avascular gradient (Table 1). This scale represents the degree of overall inhibition with maximal inhibition represented as a 3 on the avascular gradient scale.

Row | Structure (SMILES) | Score (avascular gradient scale) (dipyridamole 0.02 μg/10 μL disc alone) | Score (avascular gradient scale) (dipyridamole 0.06 μg/10 μL disc alone) | Score (avascular gradient scale) (dipyridamole 5.92 μg/10 μL disc alone) | Score (avascular gradient scale) (paclitaxel 1 μg/10 μL disc alone)
1 | OCCN(CCO)c1nc(N2CCCCC2)c2nc(N(CCO)CCO)nc(N3CCCCC3)c2n1 [Dipyridamole (control), 2,6-bis(diethanolamino)-4,8-dipiperidinopyrimido(5,4-d) pyrimidine] | 0 | 0 | 0 | 
2 | CC(=O)O[C@H]1C(=O)[C@@]2(C)[C@H]([C@H](OC(=O)c3ccccc3)[C@]3(O)C[C@H](OC(=O)[C@H](O)[C@@H](NC(=O)c4ccccc4)c4ccccc4)C(C)=C1C3(C)C)[C@]1(OC(C)=O)CO[C@@H]1C[C@@H]2O [Paclitaxel (control), paclitaxel] |  |  |  | 2
